Experiments:
Pellicularia sasakii [1] = assay: Abnormal branching of hyphal tips of Pellicularia sasakii (agar dilution bioassay); format: cell-based; details: for highest dilution factor that causes an abnormal branching at the hyphal tips of Pellicularia sasakii: 1 mg./ml. aqueous solution as stock solution; for dilution unit (maximum dilution which produces abnormal branching): aqueous solution containing 1000 γ/ml., 27° C for 40 hours
Method: Therefore, the bioassay of the antibiotics should be conducted in the following manner.
Pellicularia sasakii is used as the test organism employing plain agar as the assay medium. The test organism is cultivated on a potato (sucrose) agar slant for 2 to 5 days, and the resulting culture is used to inoculate at the center of a 9-cm Petri dish plate of modified Pfeffer's medium, which is then incubated at 27° C for 2 days. By the end of this period, the mycelium will have spread over the entire surface of the plate. The growth on the circumference about 3 to 3.5 cm in radius from the center is cut out with a cork borer and the agar disc thus obtained is used as the inoculum.
A serial dilution series of agar plants containing varying concentrations of the antibiotics is prepared in the same manner as a conventional agar dilution method.
A glass disc of 8 mm in diameter and about 0.2 mm thick, is placed in the center of each of the aforementioned dilution series of agar plates, and the agar disc inoculum is then placed on the glass disc. After incubation at 27° C for 40 hours, the result is evaluated. […] The term dilution unit means the value of maximum dilution which produces such abnormal branching.
Modified Pfeffer's medium, which is employed in this assay, has the following composition.
Before using the medium, the following vitamins are added in the specified amounts. (Weight per ml. of medium)
When a 1 mg./ml. aqueous solution of each of validamycins C, D, E and F and validoxylamines A and B is used as a stock solution, the highest dilution factor that causes an abnormal branching at the hyphal tips of Pellicularia sasakii is as follows.

bacteria and fungi = assay: Antimicrobial potency / growth inhibition in vitro; format: cell-based
[2] = pKa' (neutralization, in aqueous solution); format: physicochemical; details: for pKa: water
Text: 3. The elementary analysis, the molecular formulas as calculated therefrom, pKa' values, neutralization equivalents (molecular weight) and optical rotation values are given in Table 2.

Solubilities = format: physicochemical
Mice = assay: Acute toxicity in mice, intravenous injection; format: in vivo
Method: (§1) The toxicity of the antibiotics can be confirmed, for instance, by administering each of the validamycins C, D, E and F, and validoxylamines A and B, intravenously to mice and measuring the LD50 value, or by measuring the median lethal dose (48 hours) for Oryzias latipes.

Oryzias latipes = assay: Acute toxicity for Oryzias latipes (median lethal dose, 48 hours); format: in vivo; details: leaving in water solution
Method: as §1

Pellicularia sasakii [3] = assay: Rice sheath blight control test, preventive (prophylactic); format: in vivo; details: 10 days after application, untreated 34.4cm
Method: (§2) Rice sheath blight control test
(§3) Rice Plants (variety: Kinmaze) are planted in earthen pots 9 cm in diameter, 3 stocks per pot. Seedlings 80 days after potting are tested and 6 pots each of them are grouped.
(§4) Pathogenic fungi Pellicularia sasakii is cultivated on a plate of potato infusion-sugar-agar at 30°C for 48 hours, and its agar disc 10mm in diameter is cut out from a peripheral colony. The disc is inserted into the inside space of the leaf sheath near the soil surface, a disc per stem. The pots are kept in a PVC shelter at the temperature of 32°-25° C and the relative humidity of 100-70%. Inoculation is carried out immediately after the applied drug has been air-dried in the prophylactic test, and 3 days before application in the remedial test.
(§5) 10 days after application of the drug, the length of each stem from ground level to the upper edge of the lesion is directly measured.

Pellicularia sasakii [4] = assay: Rice sheath blight control test, remedial; format: in vivo; details: inoculation 3 days before application, untreated 34.4cm
Method: as §2, §3, §4, §5

Rhyzoctonia solani = assay: Cucumber damping-off control test; format: in vivo; details: 14 days after sowing
Method: Cucumber damping-off control test
Rhyzoctonia solani is cultured on barley medium at 28° C for 5 days. A field soil sample is packed into clay pots 9 cm in diameter, which are then sterilized with steam. The chaff inoculum is evenly worked into the cover soil of each pot to the depth of about 3 cm, at the rate of 2g./pot. The pots are kept in an incubation chamber at 28° C for 4 days and, then, transferred to a greenhouse.
As per Experiment 1, the drug is sprayed onto the soil surface at the rate of 30 ml./6 pots/group.
Healthy seeds of cucumber (variety: Yonyo) are sown by burial in the pots immediately after treatment, at the rate of 10 seeds/pot. The pots are then placed in a greenhouse at 32°-28° C.
14 days after sowing, the results are evaluated against the following coefficients of lesion and the degrees of damage are calculated.
Coefficients of lesion (I)
0.5 : Root hairs alone are slightly affected.
1 : Aerial portions near soil surface and roots affected.
2 : Early stage of damping-off.
3 : Affected at germination; growth inhibited.
Degree of damage (%) =(Σ(nI))/3 × N × 100 wherein n means the number of samples corresponding to each coefficient of lesion and N means the total number of plants.

Cladosporium fulvum = assay: Tomato leaf mold control test; format: in vivo; details: 50 ppm; 14 days after inoculation; inoculated 3 days before application
Method: Tomato leaf mold control test
Tomato plants (variety: ponterosa) are planted in 12 cm in diameter pots, one plant per pot. The seedlings 50 days after potting are used, 6 pots/group.
Applied at the rate of 100 ml./6 pots/group as per Experiment 1.
Pathogenic fungi Cladosporium fulvum is cultured on a potato infusion-sucrose plate at 20° C for 14 days, and a suspension of conidia (5×10^5 /ml.) is prepared from the culture.
The plants are spray-inoculated with the suspension 3 days before application of the drug, at the rate of 5 ml. per pot. The pots are kept in an inoculation chamber at 25° C for 24 hours, and, then they are transferred to a greenhouse.
14 days after inoculation, the specific ratio of the average area of lesion in the leaves is measured.

plant diseases = assay: Control of plant diseases (general statement); format: in vivo; details: for controlling effect against plant diseases, for example, the sheath blight of the rice plant: application in vivo; for effectiveness against sheath blight and stem rot of rice plant, damping off and sclerotial blight of vegetables, flowering plants and lumber seedlings: in vivo
[5] = tested on: men and beasts, as well as to fish; assay: Harmlessness to men, beasts and fish (general statement); details: in vivo
useful plants = assay: Effect on useful plants (general statement); format: in vivo; details: even when applied in a high concentration
[6] = Acute toxicity in mice, intravenous injection; format: in vivo; details: mouse, in vivo
Method: as §1

[7] = Acute toxicity for Oryzias latipes (median lethal dose, 48 hours); format: in vivo; details: medaka, leaving in water solution, read-out: TLm
Method: as §1

Structure (SMILES)	highest dilution factor that causes an abnormal branching at the hyphal tips of Pellicularia sasakii (Pellicularia sasakii [1])	dilution unit (maximum dilution which produces abnormal branching) (Pellicularia sasakii [1]) [dilution unit/ml.]	antimicrobial potency / growth inhibition of bacteria and fungi in vitro (bacteria and fungi)	solubility in methanol (Solubilities)	Preventive effect (percent of the average length of lesion/stem per control untreated) (Pellicularia sasakii [3]; 3 ppm) [%]	Preventive effect (percent of the average length of lesion/stem per control untreated) (Pellicularia sasakii [3]; 10 ppm) [%]	Preventive effect (percent of the average length of lesion/stem per control untreated) (Pellicularia sasakii [3]; 30 ppm) [%]	Preventive effect (percent of the average length of lesion/stem per control untreated) (Pellicularia sasakii [3]; 100 ppm) [%]	Preventive effect (percent of the average length of lesion/stem per control untreated) (Pellicularia sasakii [3]; 300 ppm) [%]	Remedial effect (percent of the average length of lesion/stem per control untreated) (Pellicularia sasakii [4]; 10 ppm) [%]	Remedial effect (percent of the average length of lesion/stem per control untreated) (Pellicularia sasakii [4]; 30 ppm) [%]	Remedial effect (percent of the average length of lesion/stem per control untreated) (Pellicularia sasakii [4]; 100 ppm) [%]	Remedial effect (percent of the average length of lesion/stem per control untreated) (Pellicularia sasakii [4]; 300 ppm) [%]	Degree of damage (Rhyzoctonia solani; 5 ppm) [%]	Degree of damage (Rhyzoctonia solani; 20 ppm) [%]	Degree of damage (Rhyzoctonia solani; 80 ppm) [%]	Specific area of lesion (Cladosporium fulvum) [%]	controlling effect against plant diseases, for example, the sheath blight of the rice plant (plant diseases)	effectiveness against sheath blight and stem rot of rice plant, damping off and sclerotial blight of vegetables, flowering plants and lumber seedlings (plant diseases)	harmfulness to men and beasts, as well as to fish [5]	further results
OCC1=C[C@H](N[C@H]2C[C@H](CO)[C@@H](O[C@@H]3O[C@@H](CO)[C@@H](O[C@H]4O[C@@H](CO)[C@@H](O)[C@H](O)[C@H]4O)[C@H](O)[C@H]3O)[C@@H](O)[C@H]2O)[C@@H](O)[C@H](O)[C@H]1O [Validamycin E]	70,000 - 80,000	80000	no antimicrobial potency	more sparingly soluble	3	2	0	0	0	12	11	5	3	10	0	0	2	excellent controlling effect	very effective	substantially harmless	pKa' [2]: 6.1 ± 0.2; LD50 (Mice): > 2000 mg/kg; TLm (Oryzias latipes): > 1000 ppm; Remedial effect (percent of the average length of lesion/stem per control untreated) (Pellicularia sasakii [4]; 1 ppm): 41%; Remedial effect (percent of the average length of lesion/stem per control untreated) (Pellicularia sasakii [4]; 3 ppm): 14%; effect on germination, growth, yield and other features of useful plants (useful plants): do not substantially affect
OCC1=CC(NC2CC(CO)C(O)C(O)C2O)C(O)C(O)C1O (stereo not shown) [Validoxylamine A]	100	100	no antimicrobial potency	soluble	28	4	1	0	0	28	14	10	7	84	6	0	6	excellent controlling effect	very effective	substantially harmless	pKa [2]: 6.2 ± 0.2; LD50 [6]: > 2000 mg/kg; LC50 at 48 h [7]: > 1000 µg/mL; Remedial effect (percent of the average length of lesion/stem per control untreated) (Pellicularia sasakii [4]; 3 ppm): 83%; effect on germination, growth, yield and other features of useful plants (useful plants): do not substantially affect
OCC1=C[C@H](NC2C(O)C(O)C(O)C(CO)C2O)[C@H](O)[C@@H](O)[C@@H]1O (stereo partly shown) [Validoxylamine B]	10	10	no antimicrobial potency	more sparingly soluble	49	47	32	16	8	93	75	51	10	100	100	75	36	excellent controlling effect	very effective	substantially harmless	pKa [2]: 5 ± 0.2; solubility in pyridine (Solubilities; pyridine): more sparingly soluble; LD50 [6]: > 2000 mg/kg; LC50 at 48 h [7]: > 1000 µg/mL; effect on germination, growth, yield and other features of useful plants (useful plants): do not substantially affect
